Test results reported in US20200216493A1, “ANTIMICROBIAL PEPTIDES” (FERRING B.V., priority 2016, published 2020).
≈ marks a conversion by molar mass, not a printed value.

Columns and labels:
[1] = system: S. epidermidis (5 isolates); assay type: cell-based, Staphylococcus epidermidis; details: 20 h
Protocol: (§1) The broth microdilution susceptibility assay followed the procedure described by the Clinical and Laboratory Standards Institute (CLSI) in CLSI document M7-A10.
(§2) The following bacteria isolates were tested:
(§3) S.aureus, S.epidermidis, E.faecalis, and E.faecium colonies were grown on TSA (Tryptone Soya Agar; cat.N. P05012A -OXOID) S.pneumoniae and S.pyogenes colonies were grown on TSASB ((TSA) Agar +5% Sheep Blood; cat.N. PB5012A -OXOID). An inoculum was prepared by making a direct saline suspension of isolated colonies selected from an 18 to 24 hours agar plate incubated at 35±2 ° C. in ambient air. The suspension was adjusted to achieve a turbidity equivalent to a 0.5 McFarland turbidity standard (1 to 2 ×10^8 Colony Forming Units (CFU)) and diluted 200 fold within 15 minutes in broth. (S.aureus, S.epidermidis, E.faecalis, and E.faecium were diluted in CAMHB: Mueller Hinton Broth 2, Cation-Adjusted (cat. N. 90922 Fluka); S.pneumoniae and S.pyogenes were diluted in CAMHB +2.5% lysed horse blood. All broth contained 0.002% polysorbate 80.
(§4) 96-well plates were prepared containing 1 μL of the test compound (at 100× desired test concentration in 100% DMSO); compounds were tested at 8 final concentrations, i.e. 16 μg/mL, 8 μg/mL, 4 μg/mL, 2 μg/mL, 1 μg/mL, 0.5 μg/mL, 0.25 μg/mL, and 0.125 μg/mL. 100 μL of the broth dilution was dispensed in each well plate to have a final bacterial concentration in plate of ˜5×10^5 CFU/mL. The plates were incubated at 35±2° C. in ambient air for 20 hours.

E. faecalis (5 isolates) = assay type: cell-based, Enterococcus faecalis; details: 20 h
Protocol: as §1, §2, §3, §4

[2] = system: S. pneumoniae (8 isolates); assay type: cell-based, Streptococcus pneumonia; details: 20 h
Protocol: as §1, §2, §3, §4

S. pyogenes (2 isolates) = assay type: cell-based, Streptococcus pyogenes; details: 20 h
Protocol: as §1, §2, §3, §4

in vitro = assay type: cell-based; details: human, HepG2 cells
Protocol: Compounds were tested for cytotoxicity to a mammalian cell line HepG2 (Human hepatocyte carcinoma from ECACC (85011430)). Hep G2 cells were seeded into 96-well plates, 7500 cells/well in 100 μl medium (Minimum Essential Medium (Gibco 21090) supplemented with 2 mM L-Glutamine, 1% non-essential amino acids and 10% fetal bovine serum) and incubated for 20 hours at 37° C., 5% CO2. 100 μL of fresh medium containing a test compound or DMSO (for control) at 2× final concentration were added and incubated for 48 hours at 37° C., 5% CO2. The final concentration of DMSO in plate was 1%. At the end of this incubation, 20 μl MTT (Thiazolyl Blue Tetrazolium Bromide) solution 5 mg/ml in H2O (0.5 mg/ml final in well) was added to all wells. Cells were incubated with MTT for 4 hours at 37° C., 5% CO2. After incubation, medium containing MTT was removed; 200 μl of DMSO was added in each well and plates were put on a shaker for 5 minutes. Absorbance was read on a SpectraMax plate reader at 570 nm. Specific absorbance (Specific A570) was calculated by subtracting the mean absorbance values of the blank wells (no HepG2 cells) from each well. Control values were determined from wells containing cells and treated with medium+1% DMSO only (no test compound). % viability was calculated as:
(Specific A570test compound/Specific A570control)×100.

E.coli = assay type: cell-based, Escherichia coli; details: for MIC ratio Coli/Staph: ratio of E. coli MIC to S. aureus MIC
Protocol: (§5) This assay was used to determine the minimum concentration of a test compound (i.e., an antimicrobial peptide described herein) able to inhibit the growth of a bacterial strain of interest. This is a standard method for measuring and comparing the potency of peptide-based antibacterial agents (Steinberg et al., Antimicrobial Agents and Chemotherapy 1997, 41 (8) 1738 - 1742 and Wiegand et al., Nature Protocols 2008, 3, 163-175).
(§6) The MIC is reported in units of μg/mL.
(§7) Bacterial cultures were grown by inoculating Mueller-Hinton Broth (MHB) with 3 or 4 representative colony (typical size, color, and shape) from a bacterial strain grown on a LB agar plate. Inoculated liquid cultures were grown at 37° C. with moderate shaking (200-250 rpm) until bacteria produced a visibly turbid suspension. Bacterial inoculum was approximated by measuring the optical density at 600 nm (0D600) of the bacterial culture against a sterile MHB blank. Typically, OD600=0.10 corresponds to ˜1×10^8 cfu/mL for S.aureus and OD600 =0.15 corresponds to ˜1×10^8 cfu/mL for E.coli.
(§8) Test compounds were prepared as stock solutions in vehicle at a concentration 10 times the highest concentration to be tested for antibacterial activity (usually 320 μg/mL stock solutions). 2x serial dilutions in vehicle (at 10× the final test concentrations) of the test compounds were prepared from the test compound stock solutions in a non-binding 96 well plate.
(§9) In a sterile clear flat bottom 96 well plate, 15 μL of each test compound dilution was added to 135 μL of ˜5×10^5 cfu/mL bacterial culture. Each concentration was tested in duplicate. Each experiment contained positive control wells for bacterial growth (i.e., no test compound added to bacteria) and sterility controls wells (i.e., sterile MHB and no test compounds added). 96 well plates containing bacterial cultures and test compounds were incubated at 37° C. for 16-20 hours with shaking at 200 rpm.
(§10) After incubation, the MIC of each test compound was determined by measuring the OD600 of each well using a plate reader. Wells with OD600 >0.08 were considered to have bacterial growth and wells with OD600<0.08 were considered to have no bacterial growth. The lowest concentration of test agent able to inhibit bacterial growth (0D600<0.08 after 16-20 hours) was defined as the MIC.

S.aureus = assay type: cell-based, Staphylococcus aureus
Protocol: as §5, §6, §7, §8, §9, §10

E. faecium (3 isolates) = assay type: cell-based, Enterococcus faecium; details: 20 h
Protocol: as §1, §2, §3, §4

S. aureus (14 isolates) = assay type: cell-based, Staphylococcus aureus; details: 20 h
Protocol: as §1, §2, §3, §4

| Compound | S. epidermidis (MIC90) (5) [1] [µg/mL] | E. faecalis (5) MIC90 (E. faecalis (5 isolates)) [µg/mL] | S. pneumoniae (8) MIC90 [2] [µg/mL] | MIC C. difficile (C. difficile) [µg/mL] | S. pyogenes (2) MIC90 (S. pyogenes (2 isolates)) [µg/mL] | viability at 48 h, 100 µM (in vitro) [%] | MIC E. coli (E.coli) [µg/mL] | MIC ratio Coli/Staph (E.coli) | MIC B. fragilis (B. fragilis) [µg/mL] | MIC S. aureus (S.aureus) [µg/mL] | E. faecium (3) MIC90 (E. faecium (3 isolates)) [µg/mL] | S. Aureus (14) MIC90 (S. aureus (14 isolates)) [µg/mL] |
| --- | --- | --- | --- | --- | --- | --- | --- | --- | --- | --- | --- | --- |
| CC[C@H](C)[C@H](NC(=O)[C@@H](Cc1ccc2ccccc2c1)NC)C(=O)N[C@@H](CO)C(=O)N[C@H](CCC(N)=O)C(=O)N[C@@H](C(=O)N[C@H](C(=O)N[C@@H](CO)C(=O)N[C@H]1C(=O)N[C@@H](C)C(=O)N[C@@H](CCCCNC(=N)N)C(=O)N[C@@H]([C@@H](C)CC)C(=O)O[C@H]1C)[C@@H](C)CC)[C@@H](C)CC [Compound 75, H-D-Me2Nal-Ile-Ser-D-Gln-D-aIle-Ile-Ser-c(D-Thr-Ala-Har-Ile)] | ≤0.12 | ≤0.12 | ≤0.12 | 0.015 to 0.03 | ≤0.12 | 119 | >16 | >530 | >32 | 0.06 (≈ 0.0459 µM) | ≤0.12 | ≤0.12 |
| CC[C@H](C)[C@H](NC(=O)[C@@H](Cc1ccc(OC)cc1)NC)C(=O)N[C@@H](CO)C(=O)N[C@H](CCC(N)=O)C(=O)N[C@@H](C(=O)N[C@H](C(=O)N[C@@H](CO)C(=O)N[C@H]1C(=O)N[C@@H](C)C(=O)N[C@@H](CCCCNC(=N)N)C(=O)N[C@@H]([C@@H](C)CC)C(=O)O[C@H]1C)[C@@H](C)CC)[C@@H](C)CC [Compound 74, H-D-MeTyr(Me)-Ile-Ser-D-Gln-D-aIle-Ile-Ser-c(D-Thr-Ala-Har-Ile)] | ≤0.12 | 1 | ≤0.12 | 0.06 to 0.12 | ≤0.12 | 136 | >16 | >530 | >32 | 0.06 (≈ 0.0466 µM) | 0.5 | ≤0.12 |
| CC[C@H](C)[C@H](NC(=O)[C@@H](Cc1ccccc1)NC)C(=O)N[C@@H](CO)C(=O)N[C@H](CCC(N)=O)C(=O)N[C@@H](C(=O)N[C@H](C(=O)N[C@@H](CO)C(=O)N[C@H]1C(=O)N[C@@H](C)C(=O)N[C@@H](Cc2ccc(NC(=N)N)cc2)C(=O)N[C@@H]([C@@H](C)CC)C(=O)O[C@H]1C)[C@@H](C)CC)[C@@H](C)CC [Compound 72, H-D-MePhe-Ile-Ser-D-Gln-D-aIle-Ile-Ser-c(D-Thr-Ala-Phe(4-guanidino)-Ile)] | ≤0.12 | 0.5 | ≤0.12 | 0.25 to 0.5 | ≤0.12 | 115 | >16 | >128 | >32 | 0.12 to 0.25 | 0.5 | 0.25 |
| CC[C@H](C)[C@H](NC(=O)[C@@H](Cc1ccccc1)NC)C(=O)N[C@@H](CO)C(=O)N[C@H](CCC(N)=O)C(=O)N[C@@H](C(=O)N[C@H](C(=O)N[C@@H](CO)C(=O)N[C@H]1C(=O)N[C@@H](C)C(=O)N[C@@H](CCCCNCc2ccccc2)C(=O)N[C@@H]([C@@H](C)CC)C(=O)O[C@H]1C)[C@@H](C)CC)[C@@H](C)CC [Compound 71, H-D-MePhe-Ile-Ser-D-Gln-D-aIle-Ile-Ser-c(D-Thr-Ala-Lys(Bn)-Ile)] | ≤0.12 | 0.5 | ≤0.12 | 0.03 to 0.06 | ≤0.12 | 92 | >16 | >530 | >32 | 0.03 to 0.06 | 0.5 | ≤0.12 |
